US10450421B2, “Synthesis of multiarm poly[(R)-3-hydroxybutyrate] and its derivatives” (AGENCY FOR SCIENCE, TECHNOLOGY AND RESEARCH, priority 2015, dated 2019)
Ends that are not written are not given here.

What was measured:
[1] = system: E. coli; assay: Antimicrobial test, MIC against E. coli; type: cell-based; conditions: Gram-negative bacteria E. coli (n = 2)
Description: (§1) The solutions based on the Q-PHB-PDMAEMA were tested for efficacy in killing clinically significant pathogens: the […] and Gram-negative bacteria (E. coli).

[2] = system: S. aureus; assay: Antimicrobial test, MIC against S. aureus; type: cell-based; conditions: Gram-positive bacteria S. aureus (n = 2)
Description: as §1

GIGKFLHSAGKFGKAFVGEIMKS [Magainin I]
MIC [1]: 130 µg/mL
MIC [2]: 130 µg/mL
